Test systems include ACHN renal; SNB-75 CNS; IGROV1 ovarian; MALME-3M melanoma; CAKI-1 renal; RPMI-8226 leukemia; SK-MEL-5 melanoma; OVCAR-8 ovarian; SF-268 CNS; MDA-N.
Holding throughout (experiment): NCI tumour cell line growth inhibition, 48 h

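48-hour exposure; five concentrations; linearly interpolated endpoints. GI50 is the concentration that inhibits growth by half. TGI is the concentration that stops growth completely.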 Where only a bound is given, the exact number is not on record here.

Take `CC(=O)OC1CC2C(C)(C)OC(=O)CC(OC(C)=O)[C@]2(C)C2CCC3(C)C(=CCC3[C@H]3COC(=O)C3)[C@]12C` (some centres not stated): the TGI with ACHN renal, in the test with SNB-75 CNS, with IGROV1 ovarian, in the test on MALME-3M melanoma, in the test on CAKI-1 renal and in the test on RPMI-8226 leukemia was > 100 µM each time. Besides, the TGI in the test on SK-MEL-5 melanoma, with OVCAR-8 ovarian and in the test with SF-268 CNS was > 100 µM throughout.

`O=C(CSc1nnc(Cc2ccccc2)o1)Nc1ccc([N+](=O)[O-])cc1`: the TGI with ACHN renal, in the test with SNB-75 CNS, in the test with IGROV1 ovarian, in the test on MALME-3M melanoma, in the test with RPMI-8226 leukemia and in the test on SK-MEL-5 melanoma was > 100 µM each time. The TGI in the test with OVCAR-8 ovarian and in the test with SF-268 CNS was > 100 µM each time.

`O=C(Cc1ccccc1)NN1C(=O)/C(=C\c2cccc(O)c2)SC1=Nc1ccccc1`: the TGI in the test with ACHN renal, with SNB-75 CNS, in the test on IGROV1 ovarian, with MDA-N, in the test with SK-MEL-5 melanoma and in the test with OVCAR-8 ovarian was > 100 µM in each case. Further, the TGI in the test with SF-268 CNS is > 100 µM.

`O=C(NC(Cc1ccc(I)cc1)C(=O)O)c1ccc(Br)cc1` (configuration not stated): the TGI in the test with SNB-75 CNS, with IGROV1 ovarian, in the test on MALME-3M melanoma, in the test on CAKI-1 renal, in the test with RPMI-8226 leukemia and in the test on SK-MEL-5 melanoma was > 100 µM each time. The TGI with OVCAR-8 ovarian and with SF-268 CNS was > 100 µM each time.

As for `CNC(=O)Oc1ccc(-c2cn3cc(OC(=O)NC)ccc3n2)cc1`, the TGI in the test on ACHN renal was > 100 µM; in the test with SNB-75 CNS, > 100 µM; in the test on IGROV1 ovarian it was > 100 µM; in the test on MDA-N, > 100 µM; with CAKI-1 renal it was > 100 µM; in the test on RPMI-8226 leukemia, 81.9 µM. In addition, the TGI in the test on SK-MEL-5 melanoma was > 100 µM; in the test with OVCAR-8 ovarian it was > 100 µM; in the test with SF-268 CNS it was 75 µM.

Take `O=C1OC2(OC2c2ccccc2)c2ccccc21` (configuration not stated): the TGI in the test on ACHN renal, with SNB-75 CNS, with IGROV1 ovarian, with MALME-3M melanoma, in the test with RPMI-8226 leukemia and in the test on SK-MEL-5 melanoma was > 100 µM each time. The TGI in the test on OVCAR-8 ovarian and in the test on SF-268 CNS was > 100 µM in each case.

For the molecule `CCCCCCCCCCCCCCCCCC(=O)O[C@H](COC(=O)CCCCCCCCCCC)COC(=O)CCCCCCCCCCCCCCC`, the TGI with ACHN renal, with IGROV1 ovarian, in the test with MALME-3M melanoma, with CAKI-1 renal, with RPMI-8226 leukemia and in the test with SK-MEL-5 melanoma was > 100 µM throughout. The TGI in the test with OVCAR-8 ovarian and in the test on SF-268 CNS was > 100 µM throughout.

`Nn1c(CCCCCCCCc2nnc(COc3ccc(Cl)cc3)n2N)nnc1COc1ccc(Cl)cc1`: the TGI in the test on ACHN renal is > 100 µM; in the test with SNB-75 CNS, > 100 µM; with IGROV1 ovarian it was > 100 µM; in the test with MALME-3M melanoma, > 100 µM; in the test with CAKI-1 renal, 35.6 µM; with RPMI-8226 leukemia, > 100 µM. Also, the TGI in the test on SK-MEL-5 melanoma and in the test on SF-268 CNS was > 100 µM throughout.

Consider `O=C(OCC1OC2OC(c3ccccc3)(n3ccc4c([N+](=O)[O-])ccnc43)OC2C1OC(=O)c1ccccc1)c1ccccc1` (configuration not stated), for which the TGI with ACHN renal, with IGROV1 ovarian, in the test with MALME-3M melanoma, with MDA-N, in the test on CAKI-1 renal and with RPMI-8226 leukemia was > 100 µM each time. Moreover, the TGI in the test with SK-MEL-5 melanoma and in the test with OVCAR-8 ovarian was > 100 µM throughout.

For `Cc1[nH]c(=O)[nH]c(=O)c1/C=C/C(=O)O`, the TGI in the test on SNB-75 CNS, in the test on IGROV1 ovarian, in the test with MALME-3M melanoma, with CAKI-1 renal, in the test with RPMI-8226 leukemia and in the test on SK-MEL-5 melanoma was > 1000 µM in each case. For the same molecule, the TGI with OVCAR-8 ovarian and with SF-268 CNS was > 1000 µM in each case.

In the case of `Cc1ccc(/C(O)=C/C(=O)C(=O)/C=C(\O)c2ccc(C)cc2C)c(C)c1`, the TGI with ACHN renal was 3.65 µM; in the test on SNB-75 CNS, 4.19 µM; with IGROV1 ovarian, 4.42 µM; with MALME-3M melanoma, 3.45 µM; in the test on CAKI-1 renal, 3.69 µM; in the test on RPMI-8226 leukemia it was 4.59 µM. The TGI came out at 3.26 µM in the test with SK-MEL-5 melanoma, 7.63 µM in the test on OVCAR-8 ovarian and 4.02 µM with SF-268 CNS.

In the case of `CC1=COC(C)(C=C(C#N)C#N)CC1` (configuration not stated), the TGI with ACHN renal, in the test on SNB-75 CNS, in the test with IGROV1 ovarian, in the test on MALME-3M melanoma, with RPMI-8226 leukemia and in the test with SK-MEL-5 melanoma was > 100 µM each time. Moreover, the TGI in the test with OVCAR-8 ovarian and with SF-268 CNS was > 100 µM in each case.

With `CCCC(C)NC1=C(NC(C)=O)C(=O)c2ccccc2C1=O` (configuration not stated), the TGI in the test on ACHN renal, in the test with SNB-75 CNS, in the test with IGROV1 ovarian, with MALME-3M melanoma, with SK-MEL-5 melanoma and with OVCAR-8 ovarian was > 100 µM throughout. Moreover, in the test with SF-268 CNS, the TGI was > 100 µM.

As for `C[C@]12CCc3nc(Nc4ccccc4)sc3C1=CC[C@@H]1[C@@H]2CC[C@]2(C)/C(=N/NC(N)=S)CC[C@@H]12`, the GI50 in the test with ACHN renal is 3.67 µM; in the test on IGROV1 ovarian, 3.89 µM; in the test on MALME-3M melanoma, 3 µM; in the test with RPMI-8226 leukemia, 1.61 µM; with SK-MEL-5 melanoma, 5.9 µM; in the test on OVCAR-8 ovarian, 3.32 µM. The TGI in the test with ACHN renal was > 100 µM; in the test on IGROV1 ovarian it was > 100 µM; in the test on MALME-3M melanoma, > 100 µM; in the test on RPMI-8226 leukemia, 6.61 µM; in the test on SK-MEL-5 melanoma, > 100 µM; in the test on OVCAR-8 ovarian, > 100 µM.

For the molecule `COC(=O)C1=C2SCc3cccc(c3)CSC3=C(C(=O)OC)SC(=C(S2)S1)S3`, the TGI in the test with ACHN renal, with SNB-75 CNS, in the test with MDA-N, with CAKI-1 renal, with RPMI-8226 leukemia and in the test with SK-MEL-5 melanoma was > 100 µM each time.

`O=C(Cc1ccccc1)NN1C(=O)C(Cl)C1c1ccc(O)cc1` (configuration not stated): the TGI in the test with ACHN renal, in the test with SNB-75 CNS, in the test with IGROV1 ovarian, with MALME-3M melanoma, in the test with CAKI-1 renal and in the test on RPMI-8226 leukemia was > 100 µM in each case. In addition, the TGI in the test on SK-MEL-5 melanoma, in the test with OVCAR-8 ovarian and in the test on SF-268 CNS was > 100 µM throughout.

(Values after PubChem BioAssay (NCI).)
